Results published in patent US9539301B2, “Melanotropin ligands for skin care” (THE ARIZONA BOARD OF REGENTS ON BEHALF OF THE UNIVERSITY OF …, priority 2011, dated 2017).
Square brackets hold non-standard residues; d marks the D form. Side chains are listed from the residue outwards. Peptide text beside a SMILES is read from it. * marks the point of attachment. Cy5 maleimide = Cy5 dye as its maleimide, reacted with a thiol compound; d2Nal = N[C@H](Cc1ccc2ccccc2c1)C(=O)O; Butanoyl(4-Ph) = O=C(CCCc1ccccc1)*; Butanoyl(4-ethynyl) = C#CCCCC(=O)*; Nle = CCCC[C@H](N)C(=O)O; Mpa = O=C(O)CCS

Experiments:
[1] = test system: A375/MC1R xenograft tumor; assay: Intravital confocal imaging of dorsal skin-fold window chamber tumor xenograft; format: in vivo, SCID mouse; conditions: for tumor cell internalization of probe: 24 h after injection
Experimental: All procedures were carried out in compliance with the Guide for the Care and Use of Laboratory Animal Resources (1996), National Research Council, and approved by the Institutional Animal Care and Use Committee, University of South Florida. A dorsal skin-fold window chamber was used to study the pharmacokinetics of imaging agent uptake immediately after i.v. injection of the probe. Starting 3 days prior to the surgery, mice were daily administered 1 ml of sterile saline subcutaneously at the planned site of the window in order to loosen connective tissue and create a receiving “pocket”. SCID mice were prepared immediately before surgery; the surgical site was shaved, and then a combination of oxygen and isoflurane was used for anesthesia (animals underwent induction with 3.5% isoflurane and were maintained at 1.5-2.0%). The window chamber method utilizes a titanium steel or plexiglass “saddle” that is sutured to the back of the mouse and holds a flap of dorsal skin vertically away from the mouse's body. A small “window” of skin (approximately 5 mm in diameter) was surgically excised from the retained skin flap of the anesthetized SCID mouse. Tumor constructs were engineered using the tumor droplet method. A375/MC1R or A375 parental melanoma cells were suspended in 2.5 mg/ml of type I collagen (BD Biosciences #354249) and 1×DMEM at a final concentration of 2.5×10^6 cells/ml. Using a 48-well non-tissue culture plate, a 15 µl drop of the tumor cell suspension was polymerized in the center of the well. After brief polymerization (10-15 minutes) at 37° C., a microvessel outer layer was added that completely surrounded the droplet. The microvessel outer layer consisted of 3 mg/ml of type I collagen, 1×DMEM and, 12,000 to 15,000 GFP expressing rat microvessel fragments/ml. After 4-6 days of culture at 37 C, the constructs were then implanted into the “window chamber” by placing them directly onto the exposed subcutaneous fascia. A glass cover was then attached to the center of the “saddle” to cover the fascia and implanted tumor cells. […]

MC1R = MC1R (Homo sapiens, UniProt Q01726); assay: Europium time-resolved fluorescence competitive binding assay (Eu-NDP-α-MSH) on HCT116/hMC1R cells; set-up: host or cells: HCT116; conditions: for 1R/4R selectivity (values determined): ratio of MC4R Ki to MC1R Ki
Experimental: (§1) HCT116 cells overexpressing hMC1R and HEK293 cells overexpressing hMC4R[23] or hMC5R were used in all studies. […] Cells were maintained under standard conditions (37° C. and 5% CO2) and were grown in Dulbecco's modified Eagle medium (DMEM) supplemented with 10% FBS and 5% penicillin/streptomycin. For HCT116/hMC1R cells, geneticin (G418S, 0.4 mg/mL) was added to the media to ensure proper selection.
Competitive binding assays were performed using HCT116/hMC1R cells and HEK293/hMC4R or hMC5R as previously described, with slight modifications. […] Poly-D-Lysine Coated Plates contain a PDL polymer coating that creates a uniform positive charge at the surface of the plastic, thereby facilitating cell attachment, growth and differentiation. […] Both labeled and non-labeled ligands were diluted in binding media (DMEM, 1 mM 1,10-phenanthroline, 200 mg/L bacitracin, 0.5 mg/L leupeptin, 0.3% BSA). In the case of the triblock polymer micelle solutions, micelles were allowed to equilibrate in solution for a period of 30 min prior to cell addition. Cells were incubated with labeled and non-labeled ligands for 1 hour at 37° C. Following incubation, cells were washed three times with wash buffer (50 mM Tris-HCl, 0.2% BSA, 30 mM NaCl) and 50 µL of enhancement solution (PerkinElmer) was added to each well. Cells were incubated for an additional 30 min at 37° C. prior to reading. […] Competition curves were analyzed with GraphPad Prism software using the sigmoidal dose-response (variable slope) classical equation for nonlinear regression analysis.
Competitive binding assays were also performed using 4-targeted triblock polymers, triblock polymer micelles, as well as untargeted micelles as a control (FIG. 4A-C).
Europium binding assays were conducted as previously published.^33, 40
Time-resolved lanthanide fluorescence competitive binding assays^33, 40 were performed in an effort to optimize ligand loading for maximal avidity. In these assays, increasing concentrations of micelles were measured for their ability to competitively displace Eu-labeled NDP-α-MSH 2. The remaining Eu was then measured using time resolved fluorescence (TRF, see Methods).

MC4R = MC4R (Homo sapiens, UniProt P32245); assay: Europium competitive binding assay on HEK293/hMC4R cells; set-up: expressed in transfected cells; host or cells: HEK293
Experimental: as §1
Competitive binding assays were performed using HCT116/hMC1R cells and HEK293/hMC4R or hMC5R as previously described, with slight modifications. HCT116/hMC1R cells were plated in black PerkinElmer 96-well plates and HEK293/hMC4R and HEK293/hMC5R cells were plated on SigmaScreen Poly-D-Lysine Coated Plates (SigmaAldrich), all at a density of 10,000-30,000 cells/well. Poly-D-Lysine Coated Plates contain a PDL polymer coating that creates a uniform positive charge at the surface of the plastic, thereby facilitating cell attachment, growth and differentiation. […] Both labeled and non-labeled ligands were diluted in binding media (DMEM, 1 mM 1,10-phenanthroline, 200 mg/L bacitracin, 0.5 mg/L leupeptin, 0.3% BSA). […] Cells were incubated for an additional 30 min at 37° C. prior to reading. […] Competition curves were analyzed with GraphPad Prism software using the sigmoidal dose-response (variable slope) classical equation for nonlinear regression analysis.

MC5R [2] = target: T1, MC5R (Homo sapiens, UniProt P33032); assay: Europium competitive binding assay on HEK293/hMC5R cells; set-up: expressed in transfected cells; host or cells: HEK293
Experimental: HCT116 cells overexpressing hMC1R and HEK293 cells overexpressing hMC4R[23] or hMC5R were used in all studies. The parental human colorectal carcinoma cell line, HCT116 (American Type Culture Collection, CCL 247) was also used. Cells were maintained under standard conditions (37° C. and 5% CO2) and were grown in Dulbecco's modified Eagle medium (DMEM) supplemented with 10% FBS and 5% penicillin/streptomycin. For HCT116/hMC1R cells, geneticin (G418S, 0.4 mg/mL) was added to the media to ensure proper selection.
Competitive binding assays were performed using HCT116/hMC1R cells and HEK293/hMC4R or hMC5R as previously described, with slight modifications. HCT116/hMC1R cells were plated in black PerkinElmer 96-well plates and HEK293/hMC4R and HEK293/hMC5R cells were plated on SigmaScreen Poly-D-Lysine Coated Plates (SigmaAldrich), all at a density of 10,000-30,000 cells/well. […] Cells were incubated for an additional 30 min at 37° C. prior to reading. The plates were read on a PerkinElmer VICTOR×4 2030 multilabel reader using the standard Eu TRF measurement (340 nm excitation, […], and emission collection for […] at 615 nm). Competition curves were analyzed with GraphPad Prism software using the sigmoidal dose-response (variable slope) classical equation for nonlinear regression analysis. […]

MC5R [3] = target: T1, MC5R; conditions: footnote: value denotes an EC50; read-out: EC50 MC5R (values derived from literature); cited from earlier work

T1 sequence (P33032 whole entry): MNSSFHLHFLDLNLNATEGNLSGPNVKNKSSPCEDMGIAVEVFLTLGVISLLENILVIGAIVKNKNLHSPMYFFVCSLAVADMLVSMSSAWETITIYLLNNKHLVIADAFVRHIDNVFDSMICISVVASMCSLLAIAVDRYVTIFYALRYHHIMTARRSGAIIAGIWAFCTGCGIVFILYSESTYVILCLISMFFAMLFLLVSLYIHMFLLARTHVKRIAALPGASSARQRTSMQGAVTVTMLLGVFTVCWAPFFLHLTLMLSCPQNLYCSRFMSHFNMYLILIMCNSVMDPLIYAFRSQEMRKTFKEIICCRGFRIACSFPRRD
MC1R, sequence (Q01726 whole entry): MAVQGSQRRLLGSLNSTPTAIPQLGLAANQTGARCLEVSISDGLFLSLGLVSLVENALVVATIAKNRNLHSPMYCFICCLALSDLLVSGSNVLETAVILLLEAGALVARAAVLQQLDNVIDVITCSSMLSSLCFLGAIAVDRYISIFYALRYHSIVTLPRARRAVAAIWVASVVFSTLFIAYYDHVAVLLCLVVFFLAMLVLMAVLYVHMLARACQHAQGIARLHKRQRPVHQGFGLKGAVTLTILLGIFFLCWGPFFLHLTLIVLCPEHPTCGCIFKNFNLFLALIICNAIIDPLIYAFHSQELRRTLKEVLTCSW
MC4R, sequence (P32245 whole entry): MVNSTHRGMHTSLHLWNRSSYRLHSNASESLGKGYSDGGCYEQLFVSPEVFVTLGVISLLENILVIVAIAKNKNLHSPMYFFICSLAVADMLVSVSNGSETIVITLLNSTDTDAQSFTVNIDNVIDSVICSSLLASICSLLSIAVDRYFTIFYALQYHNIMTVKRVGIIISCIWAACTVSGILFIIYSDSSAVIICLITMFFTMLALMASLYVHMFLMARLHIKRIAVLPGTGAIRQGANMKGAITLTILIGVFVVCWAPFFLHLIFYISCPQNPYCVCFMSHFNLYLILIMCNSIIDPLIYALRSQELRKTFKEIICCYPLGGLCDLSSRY

## MC1R-Cy5: MC1R ligand conjugated to Cy5 maleimide dye ({Butanoyl(4-Ph)}-H[dF]RWGK([Mpa-Cy5 maleimide])-NH2)
[1]
  tumor cell internalization of probe: fully internalized
[1]; listed as MC1R-635 probe
  tumor cell internalization of probe: detected inside the cells
[1]; after i.v. injection, 5 nmol/kg
  time at which probe binds tumor cells in vivo: ≤ 5 min

## CC(=O)N[C@@H](CCc1ccccc1)C(=O)N[C@@H](Cc1cnc[nH]1)C(=O)N[C@H](Cc1ccccc1)C(=O)N[C@@H](CCCN=C(N)N)C(=O)N[C@@H](Cc1c[nH]c2ccccc12)C(N)=O [Compound 2, Ac-Homophenylalanine-His-DPhe-Arg-Trp-NH2]
MC1R; HCT116/hMC1R cells, competition with Eu-NDP-α-MSH, read-out: Ki MC1R (values determined)
  Ki: 1.77 nM

## C#CCCCC(=O)NCCCC[C@H](N)C(=O)N[C@@H](Cc1ccc(O)cc1)C(=O)N[C@H](C(=O)N[C@@H](CCCC)C(=O)NCC(=O)N[C@@H](Cc1c[nH]cn1)C(=O)N[C@H](Cc1ccc2ccccc2c1)C(=O)N[C@@H](CCCNC(=N)N)C(=O)N[C@H](Cc1ccccc1)C(=O)N[C@@H](CC(=O)O)C(=O)N[C@@H](CCCNC(=N)N)C(=O)N[C@@H](Cc1ccccc1)C(=O)NCC(N)=O)C(C)C [Compound 8, H-Lys(hex-5-ynoyl)Tyr-Val-Nle-Gly-His-DNal(2′)-Arg-DPhe-Asp-Arg-Phe-Gly-NH2] (H-K(Butanoyl(4-ethynyl))YV[Nle]GH[d2Nal]R[dF]DRFG-NH2)
MC1R
  1R/4R selectivity (values determined): 1.05

## C#CCCCC(=O)NCCCC[C@H](N)C(=O)N[C@@H](Cc1ccc(O)cc1)C(=O)N[C@H](C(=O)N[C@@H](CCCC)C(=O)NCC(=O)N[C@@H](Cc1cnc[nH]1)C(=O)N[C@H](Cc1ccc2ccccc2c1)C(=O)N[C@@H](CCCNC(=N)N)C(=O)N[C@H](Cc1c[nH]c2ccccc12)C(=O)N[C@@H](CC(=O)O)C(=O)N[C@@H](CCCNC(=N)N)C(=O)N[C@@H](Cc1ccccc1)C(=O)NCC(N)=O)C(C)C [Compound 6, H-Lys(hex-5-ynoyl)-Tyr-Val-Nle-Gly-His-DNal(2′)-Arg-DTrp-Asp-Arg-Phe-Gly-NH2]
MC4R; read-out: Ki MC4R (values determined)
  Ki: 1.74 nM
MC5R [2]; read-out: Ki MC5R (values determined)
  Ki: 1.48 nM

## N=C(N)NCCC[C@H](NC(=O)[C@@H](Cc1ccccc1)NC(=O)[C@H](Cc1c[nH]cn1)NC(=O)C=Cc1ccc(O)cc1)C(=O)N[C@@H](Cc1c[nH]c2ccccc12)C(N)=O [Compound 3, 4-hydroxycinnamoyl-His-DPhe-Arg-Trp-NH2]
MC4R
  Ki MC4R (values determined): no affinity
MC5R [2]
  Ki MC5R (values determined): no affinity
MC1R; HCT116/hMC1R cells, competition with Eu-NDP-α-MSH
  Ki MC1R (values determined): no affinity

## CCCC[C@H](NC(=O)[C@@H](NC(=O)[C@@H](N)Cc1ccc(O)cc1)C(C)C)C(=O)NCC(=O)N[C@@H](Cc1cnc[nH]1)C(=O)N[C@H](Cc1ccc2ccccc2c1)C(=O)N[C@@H](CCCN=C(N)N)C(=O)N[C@H](Cc1c[nH]c2ccccc12)C(=O)N[C@@H](CC(=O)O)C(=O)N[C@@H](CCCN=C(N)N)C(=O)N[C@@H](Cc1ccccc1)C(=O)NCC(N)=O [Compound 5, H-Tyr-Val-Nle-Gly-His-DNal(2′)-Arg-DTrp-Asp-Arg-Phe-Gly-NH2]
MC5R [3]
  EC50: 3.5 nM

## C#CCCCC(=O)NCCCC[C@H](NC(=O)CNC(=O)[C@H](Cc1c[nH]c2ccccc12)NC(=O)[C@H](CCCNC(=N)N)NC(=O)[C@@H](Cc1ccccc1)NC(=O)[C@H](Cc1c[nH]cn1)NC(=O)CCCc1ccccc1)C(N)=O [Compound 4, 4-phenylbutyry1-His-DPhe-Arg-Trp-Gly-Lys(hex-5-ynoyl)-NH2] ({Butanoyl(4-Ph)}-H[dF]RWGK(Butanoyl(4-ethynyl))-NH2)
MC1R
  1R/4R selectivity (values determined): 1000
MC1R; ratio of MC5R Ki to MC1R Ki
  1R/5R selectivity (values determined): 200
